From ChEMBL document CHEMBL5346961, “Discovery and Evaluation of 3-Quinoxalin Urea Derivatives as Potent, Selective, and Orally Available ATM Inhibitors Combined with Chemotherapy for the Treatment of Cancer via Goal-Oriented Molecule Generation and Virtual Screening” (J Med Chem, 2023) come the findings set out here.

Data set [1] can be described thus: Volume of distribution at steady state in Balb/C mouse at 10 mg/kg,po measured upto 48 hrs by LC-MS/MS analysis. The data set is classed as ADME, organism-based. To be noted: in vivo.
A further data set deals with HCT-116. The experiment in a line: Induction of apoptosis in human HCT-116 cells assessed as viable cells at 1 uM measured after 2 days in presence of irinotecan by AnnexinV-FITC/PI staining based analysis (reference value: 72.8%). The data set is classed as functional. To be noted: HCT-116, 48 h, time 2 day, read-out: Activity.
A short description of data set [2]: Metabolic stability in human liver microsomes assessed as half life at 1 uM in presence of NADPH-regenerating system by LC-MS/MS analysis. The data set is classed as ADME, Microsome. In general terms: Liver microsomes are vesicles of endoplasmic reticulum, rich in cytochrome P450 enzymes.
Data set [3] is described as follows: Tmax in Balb/C mouse at 10 mg/kg,iv measured upto 48 hrs by LC-MS/MS analysis. The data set is classed as ADME, organism-based. As to conditions: in vivo.

By half-life is commonly meant the time in which the quantity being followed falls by half. The term Tmax denotes the time at which the peak concentration occurs. As to `CC(C)NC(=O)N(C)c1cnc2ccc(-c3ccc(OCCCN4CCCCC4)nc3)cc2n1`, in data set [1], the Vdss was 3.52 L/kg. Moreover, the viability at 1 µM with HCT-116 turned out to be 17.3%. Further, the half-life at 1 µM in data set [2] was 12.8 h. Also, in data set [3], the time to peak (Tmax) is 4.8 min.
